Assay results published in ChEMBL document CHEMBL2440118, “Triazole-dithiocarbamate based selective lysine specific demethylase 1 (LSD1) inactivators inhibit gastric cancer cell growth, invasion, and migration” (J Med Chem, 2013).
The source made the active and inactive calls. No cut-off for these calls is given here.

Key:
[1] = target: T1, Amine oxidase [flavin-containing] B (Homo sapiens, UniProt P27338)
T1 sequence (P27338 whole entry): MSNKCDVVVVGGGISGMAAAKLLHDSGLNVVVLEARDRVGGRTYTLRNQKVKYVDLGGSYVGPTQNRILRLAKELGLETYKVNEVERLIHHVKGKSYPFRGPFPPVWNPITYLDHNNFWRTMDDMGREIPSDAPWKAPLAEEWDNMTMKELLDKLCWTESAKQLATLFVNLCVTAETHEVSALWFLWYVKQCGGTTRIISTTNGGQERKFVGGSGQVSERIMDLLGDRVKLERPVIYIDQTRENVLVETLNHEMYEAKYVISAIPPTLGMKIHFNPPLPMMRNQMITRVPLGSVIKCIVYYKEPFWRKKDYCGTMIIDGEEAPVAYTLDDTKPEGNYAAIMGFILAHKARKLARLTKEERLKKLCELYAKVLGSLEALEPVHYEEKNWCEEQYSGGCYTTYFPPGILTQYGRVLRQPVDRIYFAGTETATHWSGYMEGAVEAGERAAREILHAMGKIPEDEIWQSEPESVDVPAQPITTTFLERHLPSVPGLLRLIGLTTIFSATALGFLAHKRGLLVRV

[2] = target: T2, Amine oxidase [flavin-containing] A (Homo sapiens, UniProt P21397)
T2 sequence (P21397 whole entry): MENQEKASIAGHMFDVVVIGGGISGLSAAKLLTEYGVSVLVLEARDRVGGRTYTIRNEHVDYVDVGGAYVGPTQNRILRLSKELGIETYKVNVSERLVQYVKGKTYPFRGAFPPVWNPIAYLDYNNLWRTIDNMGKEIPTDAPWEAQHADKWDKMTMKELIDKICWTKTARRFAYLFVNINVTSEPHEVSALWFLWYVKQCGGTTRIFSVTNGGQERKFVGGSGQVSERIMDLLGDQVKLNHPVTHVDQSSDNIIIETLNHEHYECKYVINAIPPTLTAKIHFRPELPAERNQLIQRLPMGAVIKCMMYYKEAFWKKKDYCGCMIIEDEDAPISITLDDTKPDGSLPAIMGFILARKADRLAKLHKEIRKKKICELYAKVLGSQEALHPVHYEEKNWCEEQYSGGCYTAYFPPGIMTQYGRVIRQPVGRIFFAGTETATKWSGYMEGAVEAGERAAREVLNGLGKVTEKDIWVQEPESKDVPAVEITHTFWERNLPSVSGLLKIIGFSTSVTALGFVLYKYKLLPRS

[3] = target: Lysine-specific histone demethylase 1A (Homo sapiens) (UniProt O60341)
[4] = target: Lysine-specific histone demethylase 1A (Homo sapiens) (UniProt O60341); settings: 312.5 uM
[5] = target: Lysine-specific histone demethylase 1A (Homo sapiens) (UniProt O60341); remark: listed apart in the source
[6] = target: Lysine-specific histone demethylase 1A (Homo sapiens) (UniProt O60341); test: Inhibition of LSD1 in human MGC803 cells assessed as elevation of E-cadherin protein expression at 0.02 to 1 uM after 48 hrs by Western blotting analysis relative to control; assay type: cell-based; settings: MGC-803
[7] = target: Lysine-specific histone demethylase 1A (Homo sapiens) (UniProt O60341); test: Inhibition of LSD1-snail interaction in human MGC803 cells at 0.25 uM after 48 hrs by immunoprecipitation assay; assay type: cell-based; settings: MGC-803
[8] = target: Lysine-specific histone demethylase 1A (Homo sapiens) (UniProt O60341); settings: 0.5 to […]
[9] = target: Lysine-specific histone demethylase 1A (Homo sapiens) (UniProt O60341); settings: 0.5 to […]; remark: listed apart in the source
[10] = target: Lysine-specific histone demethylase 1A (Homo sapiens) (UniProt O60341); settings: 0.5 to […]; remark: listed apart in the source

Compound	IC50 [1] [µM]	IC50 [2] [µM]	inhibition [3]	inhibition [4]	inhibition [5]	inhibition [6]	inhibition [7]	inhibition [8]	inhibition [9]	inhibition [10]
CC(C)(C)OC(=O)N1CCN(C(=S)SCc2cn(Cc3ccccc3F)nn2)CC1	791	> 1250	–	–	–	–	–	–	–	–
Cc1ccc(Cn2cc(CSC(=S)N3CCN(C(=O)OC(C)(C)C)CC3)nn2)cc1	> 1250	> 1250	Active	Active	Active	Active	Active	Active	Active	Active
